These results are taken from PubChem BioAssay (NCI).

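In this assay, cells in 96-well plates receive the compound at five concentrations for 48 hours. Endpoints are linearly interpolated between the surrounding concentrations. GI50 marks 50% less growth. TGI: concentration producing complete growth inhibition.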

Test systems include MDA-MB-435; LOX IMVI melanoma; HT29 colon; RPMI-8226 leukemia; OVCAR-3 ovarian; NCI/ADR-RES ovarian; DU-145 prostate; SF-539 CNS; SW-620 colon; OVCAR-4 ovarian.
Experiment in all cases: NCI-60 cell line screen, 48 h

Turning to `CCOC(=O)c1cc2c(cc1Cl)SC(N(c1ccc(F)cc1)S(=O)(=O)c1ccc(OC)cc1)=NS2(=O)=O`, the GI50 with MDA-MB-435 was 14.8 µM; in the test with LOX IMVI melanoma it was 12.9 µM; in the test with HT29 colon, 16.1 µM; in the test with RPMI-8226 leukemia, 15 µM; with OVCAR-3 ovarian, 13.9 µM; in the test with NCI/ADR-RES ovarian, 21.2 µM. The GI50 in the test with DU-145 prostate is 16.1 µM; with SF-539 CNS it was 9.61 µM; in the test on SW-620 colon it was 15.9 µM; in the test with OVCAR-4 ovarian, 14.9 µM. The TGI in the test on MDA-MB-435 was determined as 44.7 µM; in the test with LOX IMVI melanoma it was 25.6 µM; in the test on HT29 colon, 34.6 µM; in the test with RPMI-8226 leukemia, 51.5 µM; with OVCAR-3 ovarian, 28.3 µM; in the test with NCI/ADR-RES ovarian it was 42.1 µM. The TGI with DU-145 prostate was 33.9 µM; with SF-539 CNS it was 22.7 µM; in the test on SW-620 colon, 30.6 µM; in the test with OVCAR-4 ovarian it was 39.5 µM.

As for `N#Cc1c(NC(=O)c2cccs2)[n+]([O-])c2ccccc2[n+]1[O-]`, the GI50 in the test with MDA-MB-435, with LOX IMVI melanoma, in the test with HT29 colon, in the test with RPMI-8226 leukemia, with OVCAR-3 ovarian and in the test on NCI/ADR-RES ovarian was above 100 µM each time. Besides, the GI50 in the test with DU-145 prostate, with SF-539 CNS, in the test on SW-620 colon and with OVCAR-4 ovarian was above 100 µM throughout. The TGI with MDA-MB-435, with LOX IMVI melanoma, in the test with HT29 colon, in the test with RPMI-8226 leukemia, in the test on OVCAR-3 ovarian and in the test with NCI/ADR-RES ovarian was above 100 µM each time. The TGI in the test on DU-145 prostate, in the test with SF-539 CNS, in the test on SW-620 colon and in the test with OVCAR-4 ovarian was above 100 µM in each case.

For the compound `C[C@]12CC[C@H]3[C@@H](CCC4=CC(=O)CC[C@@H]43)[C@@H]1CC[C@@H]2OC1(O)C(=O)c2ccccc2C1=O`, the TGI in the test on MDA-MB-435 is above 100 µM; in the test on LOX IMVI melanoma it was above 100 µM; in the test on HT29 colon it was above 100 µM; in the test with RPMI-8226 leukemia, 80 µM; with OVCAR-3 ovarian, above 100 µM; in the test with NCI/ADR-RES ovarian, above 100 µM. Moreover, the TGI is 66.7 µM in the test on DU-145 prostate, above 100 µM in the test with SF-539 CNS, above 100 µM in the test with SW-620 colon and above 100 µM in the test with OVCAR-4 ovarian.

`CC1(C)CCSC(/C=C/c2ccccc2)=N1`: the TGI in the test with MDA-MB-435 stood at 32.6 µM; in the test on LOX IMVI melanoma, 27.8 µM; in the test with HT29 colon, 33.1 µM; in the test with RPMI-8226 leukemia it was 62.6 µM; in the test on OVCAR-3 ovarian it was 28.5 µM; in the test with NCI/ADR-RES ovarian it was 38.2 µM. The TGI in the test with DU-145 prostate was above 100 µM; in the test on SF-539 CNS it was 43.5 µM; with SW-620 colon it was 38.6 µM; in the test with OVCAR-4 ovarian it was 32.5 µM.

As for `Cc1cccc2c3c(sc12)C(c1ccc(Cl)cc1)C(C#N)=C(/N=C/c1ccc(Cl)cc1)O3` (stereo not given), the GI50 with MDA-MB-435 is 0.172 µM; in the test with LOX IMVI melanoma it was 0.651 µM; with HT29 colon it was 0.388 µM; with RPMI-8226 leukemia it was 0.408 µM; in the test with OVCAR-3 ovarian, 0.393 µM; with NCI/ADR-RES ovarian it was 0.307 µM. For the same compound, the GI50 in the test on DU-145 prostate is 0.485 µM; in the test with SF-539 CNS, 0.298 µM; with SW-620 colon it was 0.434 µM; with OVCAR-4 ovarian it was 2.17 µM. Also, the TGI is 0.407 µM with MDA-MB-435; above 100 µM in the test on LOX IMVI melanoma; above 52 µM in the test on HT29 colon; above 28.3 µM in the test on RPMI-8226 leukemia; 6.81 µM in the test on OVCAR-3 ovarian; 4.27 µM with NCI/ADR-RES ovarian. Besides, the TGI is above 100 µM with DU-145 prostate, 1.26 µM in the test with SF-539 CNS, above 100 µM in the test on SW-620 colon and above 100 µM in the test on OVCAR-4 ovarian.

In the case of `S=C(Nc1ccccc1)c1ccccn1`, the GI50 is 80.6 µM in the test with MDA-MB-435; 28.2 µM in the test on LOX IMVI melanoma; 50.1 µM with HT29 colon; 41.7 µM with RPMI-8226 leukemia; 31.6 µM in the test with OVCAR-3 ovarian; 52.1 µM in the test on NCI/ADR-RES ovarian. The GI50 was 53 µM in the test on DU-145 prostate, above 100 µM in the test on SF-539 CNS, 59.4 µM with SW-620 colon and 52.4 µM with OVCAR-4 ovarian. Further, the TGI in the test on MDA-MB-435, in the test with LOX IMVI melanoma, in the test with HT29 colon, with RPMI-8226 leukemia, in the test with OVCAR-3 ovarian and in the test with NCI/ADR-RES ovarian was above 100 µM each time. Also, the TGI in the test on DU-145 prostate, in the test on SF-539 CNS, in the test on SW-620 colon and in the test on OVCAR-4 ovarian was above 100 µM each time.

On to `COc1ccc(/C=C/C(=O)c2ccc(Nc3ncnc4ccccc34)cc2)cc1OC`, for which the GI50 in the test on MDA-MB-435 is 2.93 µM; in the test with LOX IMVI melanoma, 2.81 µM; in the test on HT29 colon, 3.21 µM; in the test with RPMI-8226 leukemia it was 0.365 µM; with OVCAR-3 ovarian, 5.1 µM; in the test with NCI/ADR-RES ovarian it was 3.82 µM. The GI50 in the test with DU-145 prostate was 8.16 µM; in the test with SF-539 CNS, 7.73 µM; in the test on SW-620 colon, 3.51 µM; with OVCAR-4 ovarian it was 3.26 µM. Further, the TGI in the test on MDA-MB-435 is above 100 µM; with LOX IMVI melanoma, 10.4 µM; with HT29 colon, 12.1 µM; in the test on RPMI-8226 leukemia it was 1.66 µM; in the test on OVCAR-3 ovarian, above 100 µM; with NCI/ADR-RES ovarian, above 100 µM. Besides, the TGI in the test on DU-145 prostate was above 100 µM; with SF-539 CNS it was 48.8 µM; in the test on SW-620 colon, above 100 µM; in the test with OVCAR-4 ovarian it was 27 µM.

Consider `C#Cc1cccc(NC(=O)Nc2ccc(NC(=O)CCl)cc2)c1`, for which the GI50 with MDA-MB-435 is 22.1 µM; in the test on LOX IMVI melanoma, 1.57 µM; in the test on HT29 colon, 14.8 µM; with RPMI-8226 leukemia, 10.8 µM; with OVCAR-3 ovarian, 12.1 µM; in the test on NCI/ADR-RES ovarian, 23.3 µM. Also, the GI50 was 32.7 µM in the test with DU-145 prostate, 13.3 µM in the test with SF-539 CNS, 14.9 µM in the test on SW-620 colon and 12.2 µM with OVCAR-4 ovarian. The TGI with MDA-MB-435 was above 82.5 µM; with LOX IMVI melanoma, 3.19 µM; in the test with HT29 colon it was 36.3 µM; with RPMI-8226 leukemia, 28.5 µM; in the test with OVCAR-3 ovarian it was 25.5 µM; with NCI/ADR-RES ovarian, 70 µM. The TGI with DU-145 prostate was above 82.5 µM; in the test on SF-539 CNS, 25 µM; with SW-620 colon, 33.2 µM; in the test on OVCAR-4 ovarian it was 28.6 µM.
